One test concerns CLDN1 mRNA. Description: qPCR of CLDN1 mRNA in PHK treated with PPARγ agonist. The class given is cell-based, human. Particulars: 5 μM, PHK differentiated in high Calcium media (DMEM) 24 h. How it is done: (§1) PHK were differentiated in high Calcium media (DMEM) in the presence of CIG 5 μM in DMSO or media with equivalent amount of DMSO alone, for 24 h. Total RNA was extracted from PHK using the QlAshredder spin column (Qiagen) and RNeasy RNA isolation kits (Qiagen). The quality of total RNA samples (RNA Integrity Number, RIN) was assessed using an Agilent 2100 Bioanalyzer (Agilent Technologies, Palo Alto, Calif.).
(§2) qPCR was performed using the iScript™ cDNA Synthesis kit and iQ™ SYBER Green Supermix assay system (Bio-Rad Laboratories). All PCR amplifications were carried out in triplicate on an iQ5 Multicolor real-time PCR detection system (Bio-Rad). Primers were designed and synthesized by Integrated DNA Technologies. Relative gene expression was calculated by using the 2^−ΔΔCt method, as previously described. The normalized Ct value of each sample was calculated using GAPDH as an endogenous control gene.
A general note: In qPCR the cycle at which signal appears reflects the starting amount.

The subject of the next test is occludin mRNA. Description: qPCR of occludin mRNA in PHK treated with PPARγ agonist. It is filed as cell-based, human. Particulars: 5 μM, PHK differentiated in high Calcium media (DMEM) 24 h. As for the experimental part:
as §1, §2

A further test deals with claudin-1. Description: Western blot of claudin-1 protein in primary human keratinocytes. It is filed as cell-based. Particulars: 50 ng/ml; for claudin-1 expression over control: 48 hours, differentiating PHK, n=3; for claudin-1 expression by Western blot: PHK differentiated 48 h. As for the experimental part: Human keratinocytes were isolated from neonatal foreskin. Poumay et al., “Basal Detachment of the Epidermis Using Dispase: Tissue Spatial Organization and Fate of Integrin Alpha 6 Beta 4 and Hemidesmosomes,” J. Invest. Dermatol. 102:111-7 (1994), which is hereby incorporated by reference in its entirety. PHK were cultured in Keratinocyte-SFM (Invitrogen/Gibco) with 1% Pen/Strep, 0.2% Amphotericin B (Invitrogen/Gibco). To differentiate PHK, cells were grown in DMEM (Invitrogen/Gibco) with 10% heat-inactivated fetal bovine serum (Invitrogen/Gibco) and 1% Pen/Strep, 0.2% Amphotericin B (Invitrogen/Gibco). For TJ modulation experiments, the following cytokines were added alone or in combination to the differentiation media; human IL-4 (50 ng/ml; R&D system) and IL-13 (50 ng/ml; R&D system).
PHK were lysed on ice in RIPA lysis buffer (20 mM Tris, 50 mM NaCl, 2 mM EDTA, 2 mM EGTA, 1% sodium deoxycholate, 1% TX-100, and 2% SDS, pH 7.4), with 1:100 Protease Inhibitor Cocktail (Sigma), 1:100 Phosphatase Inhibitor Cocktail ([…] for 30 min at 4° C. The samples were heated at 95° C. for 10 min and then centrifuged at 14,000 rpm for 15 min. Forty μg of protein, determined by BCA (Pierce) in NuPage LDS Sample Buffer (Invitrogen) was applied to 4-12% NuPage Bis-Tris gels (Invitrogen). Electrophoresis was performed under reducing conditions with MES SDS Buffer (Invitrogen). Membranes were incubated in blotting solution (5% non-fat dry milk in PBS+0.05% Tween 20) at RT for 1 h and then incubated with primary antibodies; claudin-1 (JAY.8; Zymed), occludin (OC/3F10; Zymed) and GAPDH (FL-355; Santa Cruz). An HRP-linked secondary antibody (GE Healthcare) was used with ECL (GE Healthcare) to visualize bands by autoradiography with Kodak BioMax MR film. The pixel intensity of each band was estimated with Image J.
(§3) PHK were plated on glass coverslips at 2-3×10^5 cells/well in a 6-well plate or at 2-3×10^4 cells/filter in Transwell insert (Costar; PET membrane, 0.4 μm pore size, 6.5 mm insert) in Keratinocyte-SFM without antibiotics. The next day after plating, cells were transfected with claudin-1 specific or control (scrambled) siRNAs (Santa Cruz) using Lipofectamine™ 2000 transfection Reagent (Invitrogen). TEER and permeability experiments were conducted 48 hours after PHK were switched to differentiation media.
A general note: Immunoblotting shows a protein as a band on a membrane.

Test [1] relates to primary human keratinocytes (PHK). Description: Trans Epithelial Electric Resistance (TEER) in PHK monolayers. It is filed as cell-based. How it is done:
PHK were plated at a subconfluent density of 2.5−3×10^4 cells/filter in Transwell insert and cultured in Keratinocyte-SFM media until confluent. TEER was measured using an EVOMX voltohmmeter (World Precision Instruments, Sarasota, Fla.). The resistance of cell-free filters was subtracted from each experimental value.
as §3
TEER was measured in PHK as described above. PHK were stimulated with S. aureus-derived peptidoglycan (PGN, 0.2-20 μg/ml, n=3-7) (FIG. 19A), Malp-2 (10-1000 ng/ml, n=3) (FIG. 19B), and Pam3CSK4 a TLR1/2 ligand (0.01-20 μg/ml, n=3-6) (FIG. 19C). Data are presented by analyzing the area under the TEER curve and normalized to the mean values for the control group (media alone)*p<0.05; **p<0.01.

Another test relates to occludin and ZO-1. Description: Expression of occludin and ZO-1 in PHK differentiated with Th2 cytokines. It is filed as cell-based, human. Particulars: PHK differentiated with cytokine. As for the experimental part: Human keratinocytes were isolated from neonatal foreskin. Poumay et al., “Basal Detachment of the Epidermis Using Dispase: Tissue Spatial Organization and Fate of Integrin Alpha 6 Beta 4 and Hemidesmosomes,” J. Invest. Dermatol. 102:111-7 (1994), which is hereby incorporated by reference in its entirety. PHK were cultured in Keratinocyte-SFM (Invitrogen/Gibco) with 1% Pen/Strep, 0.2% Amphotericin B (Invitrogen/Gibco). To differentiate PHK, cells were grown in DMEM (Invitrogen/Gibco) with 10% heat-inactivated fetal bovine serum (Invitrogen/Gibco) and 1% Pen/Strep, 0.2% Amphotericin B (Invitrogen/Gibco). For TJ modulation experiments, the following cytokines were added alone or in combination to the differentiation media; human IL-4 (50 ng/ml; R&D system) and IL-13 (50 ng/ml; R&D system). […]
Previous studies have shown that claudin-1 expression in noncutaneous epithelial cells can be modulated by cytokines and growth factors. […] To test this possibility, PHK were differentiated in the presence or absence of Th2 cytokines, IL-4 and IL-13, and the expression of claudin-1, occludin and ZO-1 was evaluated. […]

Another test relates to human epidermis sheet. Description: TEER in human epidermal sheets (snap-well system). Particulars: 1 mM; for TEER, dmem + SC_1 / TEER, dmem + SC_2 / TEER, mean SC: T0 = 1.00. The text has this: Epidermal sheets were obtained from discarded human skin using a weck blade (0.08 inch). Epidermal samples were mounted in an adapted snap-well system (Pierro et al., “Zonula Occludens Toxin Structure-Function Analysis, Identification of the Fragment Biologically Active on Tight Junctions and of the Zonulin Receptor Binding Domain,” J. Biol.

For test [2], the system named is human cultured keratinocytes and reconstructed human epidermis. The settings on record: literature (Kurasawa et al. 2009); cited from earlier work.

Turning to `CC1(COc2ccc(CC3SC(=O)NC3=O)cc2)CCCCC1` (stereo not shown) [ciglitazone], the “CLDN1 mRNA expression over DMSO alone” value in the test on CLDN1 mRNA came out at 1.7 fold. Further, the entries for the “occludin mRNA expression” value in the test on occludin mRNA and in the test on occludin mRNA (listed as CIG) were 2.0 fold and 2 fold, respectively.
On to “IL-13: human IL-13 (R&D system), Th2 cytokine”, for which, in the test with claudin-1, the “claudin-1 expression over control” value worked out at 1.6±0.3 fold and the “claudin-1 expression by Western blot” value is recorded as “enhanced expression of claudin-1”. Also, in test [1] (0.5-100 ng/ml, PHK), the “TEER, dose response” value is “only a slight increase in TEER”. The “expression of occludin and ZO-1” value in the test with occludin and ZO-1 is recorded as “no effect”.
On to `CCCCCCCCCC(=O)[O-].[Na+]` [SC, Sodium Decanoate], for which, in the test on human epidermis sheet (4 h), the “TEER, dmem + SC_1” value worked out at 0.79; the “TEER, dmem + SC_2” value is 0.69; the “TEER, mean SC” value amounted to 0.74. Further, in the test with human epidermis sheet (24 h), the “TEER, dmem + SC_1” value is 0.56; the “TEER, dmem + SC_2” value is on record as 0.51; the “TEER, mean SC” value was found to be 0.54. In the test with human epidermis sheet (after 4 hours of treatment), the “TEER over media alone” value is recorded as 0.74 fold. Also, the “TEER over media alone” value with human epidermis sheet (after 24 hours) worked out at 0.54 fold. Moreover, in test [2], the paracellular permeability entry is reported as “increased paracellular permeability” and the transepithelial electrical resistance result was “decreased transepithelial electrical resistance”.
Consider Pam3CSK4 [reference compound], for which the “tight junction function (area under the TEER curve normalized to media alone)” value in test [1] (PGN 0.2-20 μg/ml, Malp-2 10-1000 ng/ml, Pam3CSK4 0.01-20 μg/ml) is recorded as “increase tight junction function”.

B1: IL-4: human IL-4 (R&D system), Th2 cytokine (protein, UniProt P05112 25-153, looked up)
Interleukin-4: HKCDITLQEIIKTLNSLTEQKTLCTELTVTDIFAASKNTTEKETFCRAATVLRQFYSHHEKDTRCLGATAQQFHRHKQLIRFLKRLDRNLWGLAGLNSCPVKEANQSTLENFLERLKTIMREKYSKCSS
As to B1, in the test with claudin-1, the “claudin-1 expression over control” value is given as 2.1±0.4 fold and the “claudin-1 expression by Western blot” value is given as “enhanced expression of claudin-1”. The molecule also showed a TEER peak in test [1] (50 ng/ml, PHK, n=4) of 166±24 Ohms×cm^2. Also, the “expression of occludin and ZO-1” value in the test with occludin and ZO-1 was “no effect”.

Source of the values: US20130045267A1, “METHODS OF USING AGENTS THAT MODULATE CLAUDIN EXPRESSION” (priority 2010, published 2013).
